The source of these data is patent US5103007A, “Lipids” (Takeda Chemical Industries, Ltd., priority 1988, dated 1992).

What is called IC50 is the point on the concentration scale where inhibition reaches its midpoint. Low values mean inhibition by little substance, high ones a need for much substance.

Series [1] in a line: Acute toxicity in CDF-1 female mice. Type of series: in vivo. As for the experimental part:
Acute toxicity of Compounds of Examples
CDF-1 female mice (5-week old: a group of consisting of 5 mice) were given once intraperitoneally 0.2 ml of a physiological saline solution of a compound of Example.

Series [2] deals with human nasopharynx cancer (KB cells). The series is described as follows: Inhibition of multiplication of human nasopharynx cancer (KB cells), MTT assay. Type of series: cell-based. Particulars: 72 hours. The procedure: (§1) The effect (IC50) of the compounds obtained by Examples in inhibiting multiplication of human nasopharynx cancer (KB cells) and human colon adenocarcinoma (colon 205 cells) Each well of a 96-well microtiter plate was inoculated with 0.1 ml of human nasopharynx cancer (KB cells) (1×10^4 /ml) or human colon adenocarcinoma (colon 205 cells) (2×10^4 /ml), which was then subjected to cultivation by allowing to stand at 37° C. for 24 hours in 5% CO2. To the culture was added a 10% MEM solution (manufactured by Nissui Seiyaku or RPMI-1640), and cultivation was continued at 37° C. for 72 hours in 5% CO2. Then, the culture solution was removed with a micro-pipette. […] Incubation was conducted at 37° C for 4 hours, to which was then added 0.1 ml of a 10% SDS (Wako Pure Chemical Industries, Ltd.), and the incubation was continued at 37° C. for 24 hours.
In general terms: Tetrazolium dyes change colour on reduction, which living cells bring about.

The subject of another series is breast cancer cells MM46. Kind of series: Action against breast cancer cells MM46 in C3H mice. It counts as in vivo, murine (C3H mice). Particulars: for Life-span prolongation ratio (T/C %): 0.20 mg/mouse once a day for 4 consecutive days, only related to mice which died; for No. of survivors/No. of mice tested: 0.20 mg/mouse once a day for 4 days, on the 60th day. As for the experimental part:
Action of the compounds obtained in Examples against breast cancer cells MM46
C3H mice (a group consisting of 5 mice) were inoculated intraperitoneally with 1×10^4 MM46 cells per mouse, and given 0.20 mg/mouse of compounds of Examples dissolved in physiological saline once a day for 4 consecutive days starting from the second day after the inoculation. Shown in Table 3 are the life-span prolongation ratio against the control group without treatment and the number of surviving mice on the 60th day after starting the test.

Series [3] relates to human colon adenocarcinoma (colon 205 cells). The series is described as follows: Inhibition of multiplication of human colon adenocarcinoma (colon 205 cells), MTT assay. It counts as cell-based. The note with it: 72 hours. The procedure: as §1
For a further series, the system named is Sarcoma 180 cells. Kind of series: Antitumor effect against Sarcoma 180 cells in ICR mice. Type of series: in vivo, murine (ICR mice). The note with it: for Life-span prolongation ratio (T/C %): 0.33 mg/mouse i.p. 1 hour, 1 day and 2 days after inoculation, only related to mice which died; for Number of survivors/number of mice tested: 0.33 mg/mouse i.p. three times, on the 60th day. The procedure:
Antitumor effect of compounds of Examples against Sarcoma 180 cells
ICR mice (a group consisting of 5 mice) were inoculated intraperitoneally with 1×10^5 Sarcoma 180 cells per mouse. Then, 0.33 mg/mouse of a compound dissolved in physiological saline was intraperitoneally administered three times, i.e. 1 hour, 1 day and 2 days after the inoculation. Shown in Table 4 are the life-span prolongation ratio against the control group without treatment and the number of surviving mice on the 60th day after the initiation of the test.

Series [4] has as its system murine colon cancer (colon 26). The series is described as follows: Action against murine colon cancer (colon 26) in Balb/C mice. It counts as in vivo. Particulars: 0.3 mg/mouse i.p., eight times; tumor weight after 14 days, against untreated control. As for the experimental part:
Action of the compound in Example against murine colon cancer (colon 26)
Balb/C mice (a group consisting of five mice) were inoculated subcutaneously at dorsolateral area with 2×10^5 murine colon cancer (colon 26l) cells, and then given intraperitoneally 0.3 mg/mouse of the compound dissolved in physiological saline, eight times, i.e. 1 day, 2 days, 5 days, 6 days, 8 days, 9 days, 12 days and 13 days after the inoculation. After 14 days, the tumor tissue was extirpated and the tumor weight was weighed. Shown in Table 2 is tumor growth inhibition ratio against the untreated control.

Setting [5] is: 50 mg/kg once i.p., after 7 days.

Converted amounts (≈) assume the structure as drawn.

As for `CCCCCCCCCCCCCCCCCCOCC(CSCCCOCCCn1ccnc1)Oc1ncccn1` (centres unmarked) [Ex. 12, N-[3-[3-[3-octadecyloxy-2-(pyrimidin-2-yloxy)propylthio]propoxy]propyl]imidazole], the “No. of dead mice/No. of mice tested” value in series [1] (setting [5]) is given as 0/5.
Consider `CCCCCCCCCCCCCCCCCCOCC(CS(=O)(=O)CCOCC[N+](C)(C)C)Oc1ncccn1.[Cl-]` (centres unmarked) [Ex. 21, N-[2-[2-[3-octadecyloxy-2-(pyrimidin-2-yloxy)propylsulfonyl]ethoxy]ethyl]-N,N,N-trimethylammonium chloride], for which 0.32 µg/mL corresponded to half-maximal inhibition in series [2] (IC50). Further, in the series on breast cancer cells MM46, the “Life-span prolongation ratio (T/C %)” value is 144% and the “No. of survivors/No. of mice tested” value is on record as 2/5.
Take `CCCCCCCCCCCCCCCCCCOCC(C[S+]([O-])CCOCC[N+](C)(C)C)Oc1ncccn1.[Cl-]` (centres unmarked) [Ex. 24, N-[2-[2-[3-octadecyloxy-2-(pyrimidin-2-yloxy)propylsulfinyl]ethoxy]ethyl]-N,N,N-trimethylammonium chloride]: in series [2], the 50% inhibitory concentration (IC50) is below 0.16 µg/mL. In series [3], this compound registered an IC50 of 0.63 µg/mL. For the same compound, in the series on Sarcoma 180 cells, the “Life-span prolongation ratio (T/C %)” value is 195% and the “Number of survivors/number of mice tested” value is 1/5. Besides, the “No. of dead mice/No. of mice tested” value in series [1] (mouse, in vivo) was 0/5.
For the compound `CCCCCCCCCCCCCCCCCCOCC(C[S+]([O-])CCOCC[n+]1csc(CCO)c1C)Oc1ncccn1.[Cl-]` (centres unmarked) [Ex. 6, 5-(2-hydroxyethyl)-4-methyl-3-[2-[2-[3-octadecyloxy-2-(pyrimidin-2-yloxy)propylsulfinyl]ethoxy]-ethyl]thiazolium chloride], in series [2], the IC50 is 0.32 µg/mL. Also, the IC50 in series [3] turned out to be 0.63 µg/mL. Also, in the series on Sarcoma 180 cells, the “Life-span prolongation ratio (T/C %)” value is given as 213% and the “Number of survivors/number of mice tested” value is given as 1/5.
Turning to `CCCCCCCCCCCCCCCCCCOCC(CSCCOCC[n+]1ccn(CCCCCC(=O)[O-])c1)Oc1ncccn1` (centres unmarked) [Ex. 9, 6-[3-[2-[2-[3-octadecyloxy-2-(pyrimidin-2-yloxy)propylthio]ethoxy]ethyl]imidazolio-1-yl]hexanoate], the concentration for half-maximal inhibition (IC50) in series [2] worked out at 0.32 µg/mL (≈ 0.463 µM); in series [3] it was 0.63 µg/mL (≈ 0.912 µM). Also, the “No. of dead mice/No. of mice tested” value in series [1] (mouse, in vivo) was 0/5.
For `CCCCCCCCCCCCCCCCCCOCC(CSCCOCC[n+]1ccn(CCCC(=O)[O-])c1)Oc1ncccn1` (centres unmarked) [Ex. 11, 4-[3-[2-[2-[3-octadecyloxy-2-(pyrimidin-2-yloxy)propylthio]ethoxy]ethyl]imidazolio-1-yl]butyrate], the “No. of dead mice/No. of mice tested” value in series [1] (setting [5]) is given as 0/5.
With `CCCCCCCCCCCCCCCCCCOCC(C[S+]([O-])CCOCC[n+]1ccccc1)Oc1ncccn1.[Cl-]` (centres unmarked) [Ex. 2, N-[2-[2-[3-octadecyloxy-2-(pyrimidin-2-yloxy)propylsulfinyl]ethoxy]ethyl]pyridinium chloride], the half-inhibitory concentration (IC50) in series [2] was determined as 0.32 µg/mL. The IC50 in series [3] amounted to 0.16 µg/mL. Further, in the series on breast cancer cells MM46, the “Life-span prolongation ratio (T/C %)” value came out at 150% and the “No. of survivors/No. of mice tested” value is recorded as 2/5. In series [1] (mouse, in vivo), the “No. of dead mice/No. of mice tested” value is listed as 0/5.
Regarding `CCCCCCCCCCCCCCCCCCOCC(CS(=O)(=O)CCOCC[n+]1ccsc1)Oc1ncccn1` (centres unmarked) [Ex. 19, 2-[2-[3-octadecyloxy-2-(pyrimidin-2-yl-oxy)propylsulfonyl]ethoxy]ethylthiazolium chloride], in the series with breast cancer cells MM46, the “Life-span prolongation ratio (T/C %)” value was 154% and the “No. of survivors/No. of mice tested” value is on record as 2/5.
`CCCCCCCCCCCCCCCCCCOCC(C[S+]([O-])CCOCC[n+]1ccsc1)Oc1ncccn1` (centres unmarked) [Ex. 1, 2-[2-[3-octadecyloxy-2-(pyrimidin-2-yloxy)propylsulfinyl]ethoxy]ethylthiazolium chloride] registered an IC50 in series [2] of 1.25 µg/mL. Also, the IC50 in series [3] was 1.25 µg/mL. Further, the “Growth inhibition ratio (1-T/C %)” value in series [4] was determined as 48%. For the same compound, in the series with breast cancer cells MM46, the “Life-span prolongation ratio (T/C %)” value stood at 147% and the “No. of survivors/No. of mice tested” value is reported as 4/5. In addition, in the series with Sarcoma 180 cells, the “Life-span prolongation ratio (T/C %)” value is listed as 235% and the “Number of survivors/number of mice tested” value is reported as 2/5. In addition, the “No. of dead mice/No. of mice tested” value in series [1] (mouse, in vivo) is 0/5.
`CCCCCCCCCCCCCCCCCCOCC(C[S+]([O-])CCOCC[n+]1cccc(CCCO)c1)Oc1ncccn1.[Cl-]` (centres unmarked) [Ex. 3, 3-(3-hydroxypropyl)-1-[2-[2-[3-octadecyloxy-2-(pyrimidin-2-yloxy)propylsulfinyl]ethoxy]-ethyl]pyridinium chloride] registered a concentration for half-maximal inhibition (IC50) in series [2] of 0.16 µg/mL. The half-inhibitory concentration (IC50) in series [3] turned out to be 0.63 µg/mL. Also, in the series on Sarcoma 180 cells, the “Life-span prolongation ratio (T/C %)” value amounted to 223% and the “Number of survivors/number of mice tested” value is reported as 2/5.
Turning to `CCCCCCCCCCCCCCCCCCOCC(C[S+]([O-])CCOCCOCC[N+](C)(C)C)Oc1ncccn1.[Cl-]` (centres unmarked) [Ex. 48, N-[2-[2-[3-octadecyloxy-2-(pyrimidin-2-yloxy)propylsulfinyl]ethoxy]ethoxy]ethyl-N,N,N-trimethylammonium chloride], the IC50 came to 0.16 µg/mL in series [2] and 0.63 µg/mL in series [3].
